pIC50: −log10 of the molar value.
Tests used:
[1] = tested on: A375 (melanoma); experiment: In vitro cytotoxic activity MTT assay, A375; format: cell-based; settings: Homo sapiens, A-375; A375 (melanoma) cells, exposed for 96 hours; read-out: Cytotoxicity activity IC50 (50% inhibition of cell proliferation)
Description: (§1) Compounds 1-16 were screened for their in vitro cytotoxic activity utilizing a 3-(4,5-dimethyl-thiazol-2-yl)-2,5-diphenyltetrazolium bromide (MTT) assay against selected cancer human cell lines consisting of PC3 (prostate), HCT116 (colon), A375 (melanoma), H1299 (lung), MIAPaCa-2 (pancreas), HL60 (leukemia), MCF7 (breast), MDA-MB-231 (breast) (T. Mosmann, J. Immunol. Meth., 1983, 65, 55-63). The cells were cultured at 37° C. in RMPI1640 medium supplemented with 10% fetal bovine serum, 50 IU/mL penicillin, and 50 µg/mL streptomycin in a 5% CO2 incubator. All cells were sub-cultured 3 times/week by trypsinisation. Viable cells were seeded and allowed to adhere for 12 hours before a test drug was added in 96-well plates at an initial density of 1.0×10^5 cells/mL. Tumor cell lines were separately exposed to various concentrations of the tested compounds followed by incubation at a temperature of 37° C. during 96 hours inside a medium of fresh RMPI 1640. Cells were subsequently incubated at 37° C. using MTT at 0.5 mg/mL during 4 hours. After removal of supernatant, formazan crystals were dissolved in isopropanol and the optical density was measured at 570 nm. CX-4945 was used as a positive control.

[2] = tested on: MDA-MB-231 (breast); experiment: In vitro cytotoxic activity MTT assay, MDA-MB-231; format: cell-based; settings: Homo sapiens; MDA-MB-231 (breast) cells, exposed for 96 hours; read-out: Cytotoxicity activity IC50 (50% inhibition of cell proliferation)
Description: as §1

[3] = tested on: MCF7 (breast); experiment: In vitro cytotoxic activity MTT assay, MCF7; format: cell-based; settings: Homo sapiens; MCF7 (breast) cells, exposed for 96 hours; read-out: Cytotoxicity activity IC50 (50% inhibition of cell proliferation)
Description: as §1

[4] = tested on: MIAPaCa-2 (pancreas); experiment: In vitro cytotoxic activity MTT assay, MIAPaCa-2; format: cell-based; settings: Homo sapiens, MIA PaCa-2; MIAPaCa-2 (pancreas) cells, exposed for 96 hours; read-out: Cytotoxicity activity IC50 (50% inhibition of cell proliferation)
Description: as §1

[5] = molecular target: T1, recombinant human CK2 (RRββ-holoenzyme) (Homo sapiens, UniProt P68400); experiment: CK2 Kinase Assay (33P-ATP, substrate peptide RRRDDDSDDD); format: biochemical; settings: final ATP concentration 15 μM, 10 minutes at 30° C.; read-out: protein kinase CK2 IC50
T1 construct: purchased Millipore
T1 sequence (P68400 whole entry): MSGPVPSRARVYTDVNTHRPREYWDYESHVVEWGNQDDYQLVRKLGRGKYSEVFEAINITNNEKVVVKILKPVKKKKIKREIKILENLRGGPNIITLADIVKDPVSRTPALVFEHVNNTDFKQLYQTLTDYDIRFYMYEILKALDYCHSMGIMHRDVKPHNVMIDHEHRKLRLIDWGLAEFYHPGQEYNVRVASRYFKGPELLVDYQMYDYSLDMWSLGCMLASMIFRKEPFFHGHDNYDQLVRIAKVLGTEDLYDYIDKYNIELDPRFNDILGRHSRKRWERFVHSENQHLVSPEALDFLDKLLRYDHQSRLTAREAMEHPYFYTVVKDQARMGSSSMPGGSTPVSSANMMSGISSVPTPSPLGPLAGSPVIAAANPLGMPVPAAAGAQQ
T1 sequence (P67870 whole entry partner): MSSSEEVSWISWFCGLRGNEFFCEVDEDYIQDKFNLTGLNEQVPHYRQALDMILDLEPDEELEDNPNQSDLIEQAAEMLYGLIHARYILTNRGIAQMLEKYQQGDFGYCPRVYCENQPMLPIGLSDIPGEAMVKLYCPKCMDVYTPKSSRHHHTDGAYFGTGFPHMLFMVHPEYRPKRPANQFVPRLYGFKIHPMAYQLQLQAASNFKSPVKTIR
Description: CK2 Kinase Assay was conducted using the protocol as described in Pierre F. et al; J. Med. Chem. 2011, 54, 635-654. The tested compounds in aqueous solution were added at a volume of 10 μL to a reaction mixture comprising 10 μL of assay dilution buffer (ADB; 20 mM MOPS, pH 7.2, 25 mM β-glycerol phosphate, 5 mM EGTA, 1 mM sodium orthovanadate, and 1 mM dithiothreitol), 10 μL of substrate peptide (RRRDDDSDDD, dissolved in ADB at a concentration of 1 mM), 10 μL of recombinant human CK2 (RRββ-holoenzyme, 25 ng dissolved in ADB; Millipore). Reactions were initiated by the addition of 10 μL of ATP solution (90% 75 mMMgCl2, 75 μM ATP (final ATP concentration:15 μM) dissolved in ADB; 10% [γ-33P] ATP (stock 1 mCi/100 μL; 3000 Ci/mmol (Perkin-Elmer) and maintained for 10 minutes at 30° C. The reactions were quenched with 100 μL of 0.75% phosphoric acid and then transferred to and filtered through a phosphor cellulose filter plate (Millipore). After washing each well five times with 0.75% phosphoric acid, the plate was dried under vacuum for 5 min and, following the addition of 15 μL of scintillation fluid to each well, the residual radioactivity was measured using a Wallac […]. The IC50 values were derived from eight concentrations of test inhibitors.

[6] = tested on: PC3 (prostate); experiment: In vitro cytotoxic activity MTT assay, PC3; format: cell-based; settings: Homo sapiens, Prostate cell; PC3 (prostate) cells, exposed for 96 hours; read-out: Cytotoxicity activity IC50 (50% inhibition of cell proliferation)
Description: as §1

[7] = tested on: HCT116 (colon); experiment: In vitro cytotoxic activity MTT assay, HCT116; format: cell-based; settings: Homo sapiens, HCT-116; HCT116 (colon) cells, exposed for 96 hours; read-out: Cytotoxicity activity IC50 (50% inhibition of cell proliferation)
Description: as §1

[8] = tested on: H1299 (lung); experiment: In vitro cytotoxic activity MTT assay, H1299; format: cell-based; settings: Homo sapiens, NCI-H1299; H1299 (lung) cells, exposed for 96 hours; read-out: Cytotoxicity activity IC50 (50% inhibition of cell proliferation)
Description: as §1

[9] = tested on: HL60 (leukemia); experiment: In vitro cytotoxic activity MTT assay, HL60; format: cell-based; settings: Homo sapiens, HL-60; HL60 (leukemia) cells, exposed for 96 hours; read-out: Cytotoxicity activity IC50 (50% inhibition of cell proliferation)
Description: as §1

Q: With Clc1cccc(Nc2nc3ccncc3c3nn4ccncc4c23)c1 [Compound 1, N-(3-chlorophenyl)pyrazino[1′,2′:1,5]pyrazolo[4,3-c][1,6]naphthyridin-6-amine] as the molecule, how does the pIC50 [1] read?
A: 5.43

Q: And the pIC50 [2]?
A: 5.34

Q: And the pIC50 [3]?
A: 5.24

Q: And the pIC50 [4]?
A: 5.92

Q: And the pIC50 [5]?
A: 7.42

Q: What about the pIC50 [6] of the same molecule?
A: 5.89

Q: And the pIC50 [7]?
A: 5.74

Q: What about the pIC50 [8] of the same molecule?
A: 5.82

Q: What about the pIC50 [9] of the same molecule?
A: 5.36
